Laboratory results published in DBAASP.
In brackets after ≈: the same amount, converted by molar mass.

What was measured:
Assay in all cases: ≥ marks a high value that may be exact or a test limit, other limits are often not marked, values filed in µg/mL are converted to µM
[1] = test system: Staphylococcus aureus ATCC 25923
[2] = test system: Escherichia coli ATCC 25726
[3] = test system: Salmonella enterica serovar Typhimurium
Candida albicans = test system: Candida albicans
Escherichia coli UB1005 = test system: Escherichia coli UB1005
[4] = test system: Pseudomonas aeruginosa H103
[5] = test system: Enterococcus faecalis ATCC 29212
[6] = test system: Staphylococcus epidermidis
Escherichia coli BW25113 = test system: Escherichia coli BW25113
[7] = test system: Staphylococcus aureus KCTC 1621
[8] = test system: Salmonella typhimurium KCTC 1926
[9] = test system: Escherichia coli KCTC 1682
[10] = test system: Bacillus subtilis KCTC 3068
[11] = test system: Staphylococcus epidermidis KCTC 1917
[12] = test system: Pseudomonas aeruginosa KCTC 1637

## CSCC[C@H](NC(=O)[C@H](CC(C)C)NC(=O)[C@@H]1CCCN1C(=O)CNC(=O)[C@H](CC(C)C)NC(=O)[C@H](CC(C)C)NC(=O)[C@H](C)NC(=O)CNC(=O)[C@H](CC(C)C)NC(=O)[C@@H](N)Cc1ccccc1)C(=O)N[C@@H](CC(N)=O)C(=O)N[C@@H](CC(C)C)C(=O)N[C@@H](CC(C)C)C(=O)N[C@@H](CCC(N)=O)C(N)=O [FLGALLGPLMNLLQ]
[1]
  MIC: > 160 µM
[2]
  MIC: ≥ 160 µM

## CC[C@H](C)[C@H](NC(=O)CN)C(=O)N[C@@H](Cc1ccccc1)C(=O)N[C@@H](CO)C(=O)N[C@@H](CC(C)C)C(=O)N[C@H](C(=O)N[C@@H](CCCCN)C(=O)NCC(=O)N[C@@H](C)C(=O)N[C@@H](C)C(=O)N[C@@H](CCC(N)=O)C(=O)N[C@@H](CC(C)C)C(=O)N[C@H](C(=O)NCC(=O)N[C@@H](CCCCN)C(=O)N[C@H](C(=O)N[C@H](C(=O)N[C@@H](C)C(=O)N[C@@H](CCCCN)C(=O)N[C@@H](CCC(=O)O)C(=O)N[C@@H](C)C(=O)NCC(=O)N[C@@H](CCCCN)C(=O)N[C@H](C(=O)NCC(=O)N[C@@H](CC(C)C)C(=O)N[C@@H](CCC(=O)O)C(=O)N[C@@H](CC(C)C)C(=O)N[C@@H](CCSC)C(=O)N[C@@H](C)C(=O)N[C@H]1CSSC[C@@H](C(=O)O)NC(=O)[C@H](CCC(N)=O)NC(=O)[C@H](CCCCN)NC(=O)[C@H]([C@@H](C)O)NC(=O)[C@H](C(C)C)NC(=O)[C@H](CCCCN)NC1=O)[C@@H](C)O)C(C)C)[C@@H](C)O)[C@@H](C)CC)[C@@H](C)CC [GIFSLIKGAAQLIGKTVAKEAGKTGLELMACKVTKQC]
[1]
  MIC: 32.8 µM (≈ 125 µg/mL)
[2]
  MIC: 16.4 µM (≈ 62.5 µg/mL)

## CC[C@H](C)[C@H](NC(=O)[C@H](CCCN=C(N)N)NC(=O)[C@H](C)NC(=O)[C@H](CC(C)C)NC(=O)CN)C(=O)N[C@H](C(=O)N[C@H](C(=O)N[C@H](C(=O)N[C@@H](CCCN=C(N)N)C(=O)N[C@H](C(=O)N[C@@H](C)C(=O)N[C@@H](CCCN=C(N)N)C(N)=O)C(C)C)[C@@H](C)CC)C(C)C)C(C)C [GLARIVVIRVAR]
[3]
  MIC: ≥ 47.6 µM
Candida albicans
  MIC: 94.5 µM (≈ 125 µg/mL)
Escherichia coli UB1005
  MIC: 12.1 µM (≈ 16 µg/mL)
[1]
  MIC: 47.6 µM (≈ 63 µg/mL)
[4]
  MIC: ≥ 94.5 µM
[5]
  MIC: 23.4 µM (≈ 31 µg/mL)
[6]
  MIC: 12.1 µM (≈ 16 µg/mL)

## CSCC[C@H](NC(=O)[C@H](Cc1ccccc1)NC(=O)[C@H](CCCCN)NC(=O)CNC(=O)[C@H](C)NC(=O)[C@H](C)NC(=O)[C@H](CCCCN)NC(=O)[C@H](CC(C)C)NC(=O)CNC(=O)[C@H](Cc1ccccc1)NC(=O)[C@H](CCCCN)NC(=O)[C@H](CC(C)C)NC(=O)[C@H](C)NC(=O)[C@H](CCCCN)NC(=O)CNC(=O)[C@H](CC(C)C)NC(=O)[C@H](CC(C)C)NC(=O)[C@H](CO)NC(=O)CNC(=O)[C@H](CC(C)C)NC(=O)CN)C(=O)NCC(=O)NCC(=O)N[C@@H](CCC(=O)O)C(=O)N1CCC[C@H]1C(=O)N[C@@H](CCC(N)=O)C(=O)N[C@@H](CCC(N)=O)C(=O)O [GLGSLLGKALKFGLKAAGKFMGGEPQQ]
[1]
  MIC: 25 µM (≈ 67.6 µg/mL)
[2]
  MIC: 25 µM (≈ 67.6 µg/mL)

## CC[C@H](C)[C@H](N)C(=O)N[C@@H](CC(C)C)C(=O)N[C@@H](CCCN=C(N)N)C(=O)N[C@@H](Cc1c[nH]c2ccccc12)C(=O)N[C@@H](CCCCN)C(=O)N[C@@H](Cc1c[nH]c2ccccc12)C(=O)N[C@@H](CCCN=C(N)N)C(=O)N[C@@H](Cc1c[nH]c2ccccc12)C(=O)N[C@@H](Cc1c[nH]c2ccccc12)C(=O)N[C@@H](CCCN=C(N)N)C(=O)N[C@@H](Cc1c[nH]c2ccccc12)C(=O)N[C@@H](CCCN=C(N)N)C(=O)N[C@@H](CCCN=C(N)N)C(=O)O [ILRWKWRWWRWRR]
[3]
  MIC: 2.9 µM (≈ 6.05 µg/mL)
Candida albicans
  MIC: 5.7 µM (≈ 11.9 µg/mL)
Escherichia coli UB1005
  MIC: 1.4 µM (≈ 2.92 µg/mL)
[1]
  MIC: 0.7 µM (≈ 1.46 µg/mL)
[4]
  MIC: 5.7 µM (≈ 11.9 µg/mL)
[5]
  MIC: 2.9 µM (≈ 6.05 µg/mL)
[6]
  MIC: 0.7 µM (≈ 1.46 µg/mL)

## NCCCC[C@H](NC(=O)[C@H](Cc1ccccc1)NC(=O)[C@H](CCCN=C(N)N)NC(=O)[C@H](CCCCN)NC(=O)[C@H](CCCCN)NC(=O)[C@H](CCCN=C(N)N)NC(=O)[C@@H](N)CCCCN)C(=O)N[C@@H](Cc1c[nH]c2ccccc12)C(=O)N[C@@H](Cc1c[nH]c2ccccc12)C(=O)O [KRKKRFKWW]
[3]
  MIC: 20.6 µM (≈ 28.1 µg/mL)
Candida albicans
  MIC: 41.2 µM (≈ 56.1 µg/mL)
Escherichia coli UB1005
  MIC: 20.6 µM (≈ 28.1 µg/mL)
[1]
  MIC: 2.6 µM (≈ 3.54 µg/mL)
[4]
  MIC: ≥ 115 µM
[5]
  MIC: 10.3 µM (≈ 14 µg/mL)
[6]
  MIC: 2.6 µM (≈ 3.54 µg/mL)

## CC[C@H](C)[C@H](NC(=O)[C@@H]1CCCN1C(=O)[C@H](CCCN=C(N)N)NC(=O)[C@H](CCCN=C(N)N)NC(=O)[C@H](CCCN=C(N)N)NC(=O)[C@@H](NC(=O)[C@@H]1CCCN1C(=O)[C@@H]1CCCN1C(=O)[C@H](CCCN=C(N)N)NC(=O)[C@H](Cc1ccccc1)NC(=O)[C@@H](N)CCCN=C(N)N)[C@@H](C)CC)C(=O)N[C@@H](CCCN=C(N)N)C(=O)N1CCC[C@H]1C(=O)N1CCC[C@H]1C(=O)N[C@@H](Cc1ccccc1)C(=O)N[C@@H](Cc1ccc(O)cc1)C(=O)N1CCC[C@H]1C(=O)O [RFRPPIRRRPIRPPFYP]
Escherichia coli BW25113
  MIC: 8 µM (≈ 17.8 µg/mL)

## CC[C@H](C)[C@H](NC(=O)[C@@H]1CCCN1C(=O)[C@H](Cc1c[nH]c2ccccc12)NC(=O)[C@H](CCCN=C(N)N)NC(=O)[C@H](Cc1ccccc1)NC(=O)[C@@H](N)CCCN=C(N)N)C(=O)N[C@@H](CCCN=C(N)N)C(=O)N[C@@H](CCCN=C(N)N)C(=O)N[C@@H](CCCN=C(N)N)C(=O)N1CCC[C@H]1C(=O)N[C@H](C(=O)N[C@@H](CCCN=C(N)N)C(=O)N1CCC[C@H]1C(=O)N1CCC[C@H]1C(=O)N[C@@H](Cc1ccccc1)C(=O)N[C@@H](Cc1ccc(O)cc1)C(=O)N[C@@H](Cc1c[nH]c2ccccc12)C(=O)O)[C@@H](C)CC [RFRWPIRRRPIRPPFYW]
Escherichia coli BW25113
  MIC: 4 µM (≈ 9.6 µg/mL)

## CC[C@H](C)[C@H](NC(=O)[C@H](CCCN=C(N)N)NC(=O)[C@H](CCCN=C(N)N)NC(=O)[C@H](CC(C)C)NC(=O)[C@@H](N)CCCN=C(N)N)C(=O)N[C@H](C(=O)N[C@H](C(=O)N[C@H](C(=O)N[C@@H](CCCN=C(N)N)C(=O)N[C@H](C(=O)N[C@@H](CCCN=C(N)N)C(=O)N[C@@H](CCCN=C(N)N)C(N)=O)C(C)C)[C@@H](C)CC)C(C)C)C(C)C [RLRRIVVIRVRR]
[3]
  MIC: 5.03 µM (≈ 8 µg/mL)
Candida albicans
  MIC: 19.5 µM (≈ 31 µg/mL)
[7]
  MIC: 1.97 µM (≈ 3.13 µg/mL)
Escherichia coli UB1005
  MIC: 1.26 µM (≈ 2 µg/mL)
[8]
  MIC: 0.98 µM (≈ 1.56 µg/mL)
[9]
  MIC: 7.85 µM (≈ 12.5 µg/mL)
[10]
  MIC: 3.93 µM (≈ 6.25 µg/mL)
[1]
  MIC: 5.03 µM (≈ 8 µg/mL)
[11]
  MIC: 1.97 µM (≈ 3.13 µg/mL)
[4]
  MIC: 5.03 µM (≈ 8 µg/mL)
[5]
  MIC: 2.51 µM (≈ 4 µg/mL)
[6]
  MIC: 1.26 µM (≈ 2 µg/mL)
[12]
  MIC: 3.93 µM (≈ 6.25 µg/mL)

## CC[C@H](C)[C@H](NC(=O)[C@H](CCCN=C(N)N)NC(=O)[C@@H]1CCCN1C(=O)[C@@H](NC(=O)[C@H](CCCN=C(N)N)NC(=O)[C@@H]1CCCN1C(=O)[C@@H](NC(=O)[C@@H]1CCCN1C(=O)[C@H](Cc1ccccc1)NC(=O)[C@@H]1CCCN1C(=O)[C@@H]1CCCN1C(=O)[C@@H]1CCCN1C(=O)[C@H](Cc1ccccc1)NC(=O)[C@H](CCCN=C(N)N)NC(=O)[C@@H]1CCCN1C(=O)[C@@H](N)CCCN=C(N)N)[C@@H](C)CC)[C@@H](C)CC)C(=O)N1CCC[C@H]1C(=O)O [RPRFPPPFPIPRIPRIP]
Escherichia coli BW25113
  MIC: ≥ 64 µM

## CC[C@H](C)[C@H](NC(=O)[C@H](CCCCN)NC(=O)[C@H](Cc1c[nH]c2ccccc12)NC(=O)[C@H](CCCCN)NC(=O)[C@@H](N)Cc1ccc(O)cc1)C(=O)N[C@@H](CCCN=C(N)N)C(=O)N[C@@H](Cc1ccccc1)C(=O)N[C@@H](CCCCN)C(=O)N[C@@H](CCCN=C(N)N)C(=O)O [YKWKIRFKR]
[3]
  MIC: 8.2 µM (≈ 10.9 µg/mL)
Candida albicans
  MIC: 16.3 µM (≈ 21.6 µg/mL)
Escherichia coli UB1005
  MIC: 4.1 µM (≈ 5.43 µg/mL)
[1]
  MIC: 4.1 µM (≈ 5.43 µg/mL)
[4]
  MIC: ≥ 32.6 µM
[5]
  MIC: 16.3 µM (≈ 21.6 µg/mL)
[6]
  MIC: 1 µM (≈ 1.32 µg/mL)
